# Results from patent US11524944B2, “2-phenylpyrimidine-4-carboxamides as AHR inhibitors” (Bayer Aktiengesellschaft, priority 2017, dated 2022).
# Molecular target: T1, Human AhR (Homo sapiens, UniProt P35869)
# T1 construct: host or cells: U87 glioblastoma cells, stably transfected with a DRE firefly luciferase reporter and a constitutive renilla reporter
# T1 sequence (P35869 11-848): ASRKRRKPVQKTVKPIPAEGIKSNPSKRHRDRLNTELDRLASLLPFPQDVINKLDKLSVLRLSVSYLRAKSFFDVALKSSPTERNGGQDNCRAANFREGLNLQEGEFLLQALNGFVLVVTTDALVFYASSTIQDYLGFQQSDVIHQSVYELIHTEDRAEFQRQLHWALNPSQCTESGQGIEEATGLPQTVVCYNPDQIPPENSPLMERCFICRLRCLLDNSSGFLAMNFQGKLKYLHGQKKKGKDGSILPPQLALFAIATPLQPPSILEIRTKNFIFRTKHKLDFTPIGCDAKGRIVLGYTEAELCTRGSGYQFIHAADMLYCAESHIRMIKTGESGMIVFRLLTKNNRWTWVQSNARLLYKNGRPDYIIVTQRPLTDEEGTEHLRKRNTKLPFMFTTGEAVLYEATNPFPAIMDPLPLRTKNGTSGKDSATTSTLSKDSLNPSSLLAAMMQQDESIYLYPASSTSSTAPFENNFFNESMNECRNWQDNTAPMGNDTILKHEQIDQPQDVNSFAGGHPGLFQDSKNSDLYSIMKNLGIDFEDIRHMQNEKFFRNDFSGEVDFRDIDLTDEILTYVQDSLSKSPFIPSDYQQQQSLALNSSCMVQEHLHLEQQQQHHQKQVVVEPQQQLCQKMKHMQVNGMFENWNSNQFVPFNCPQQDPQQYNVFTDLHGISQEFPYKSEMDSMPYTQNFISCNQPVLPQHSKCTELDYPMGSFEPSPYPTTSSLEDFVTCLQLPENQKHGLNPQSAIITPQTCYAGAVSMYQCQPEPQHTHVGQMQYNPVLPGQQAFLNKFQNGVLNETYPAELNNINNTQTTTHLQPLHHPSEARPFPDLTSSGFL
# Assay: Transactivation assay in human cell line (in vitro assay 1): antagonism
# Assay type: cell-based
# Conditions: U87 glioblastoma cells, AHR inducible firefly luciferase reporter (DRE), 150 μM kynurenic acid, 20 hours
# Description: Examples were tested in selected biological assays one or more times. When tested more than once, data are reported as either average values or as median values, wherein • the average value, also referred to as the arithmetic mean value, represents the sum of the values obtained divided by the number of times tested, and • the median value represents the middle number of the group of values when ranked in ascending or descending order. If the number of values in the data set is odd, the median is the middle value. If the number of values in the data set is even, the median is the arithmetic mean of the two middle values.
# Transactivation Assay in Human Cell Line (In Vitro Assay 1)
# Transactivation assay was carried out in U87 glioblastoma cells (ATCC) endogenously expressing AHR. In addition the cells were stably transfected with an AHR inducible firefly luciferase reporter gene construct that carried AHR-binding sites (DRE) in its promoter and a renilla reporter gene construct with constitutively active promoter. Kynurenic acid is an endogenous AHR activating ligand and was used to prestimulate test cells prior to testing the antagonistic properties of compounds.
# In Vitro Assay 1: Antagonism in Human Cell Line
# Firefly luciferase and Renilla activity was determined by the DualGlo Luciferase Assay System (Promega, #2920). Renilla activity was used to assess toxic effects of compounds.
row,SMILES,IC50 [nM]
1,"COc1ccc(-c2nc(C(=O)N[C@@H](C)CO)cc(-c3ccc(OC(F)(F)F)cc3)n2)cc1 [Example 30, N-[(2S)-1-hydroxypropan-2-yl]-2-(4-methoxyphenyl)-6-[4-(trifluoromethoxy)phenyl]pyrimidine-4-carboxamide]",730
2,"C[C@@H](CO)NC(=O)c1cc(-c2ccc(Cl)cc2)nc(-c2cc(F)cc(C(F)(F)F)c2)n1 [Example 75, 6-(4-chlorophenyl)-2-[3-fluoro-5-(trifluoromethyl)phenyl]-N-[(2S)-1-hydroxypropan-2-yl]pyrimidine-4-carboxamide]",97.8
3,"CC(O)C(NC(=O)c1cc(-c2ccc(OC(F)(F)F)cc2)nc(-c2cccc(F)c2)n1)C(F)(F)F (stereo not shown) [Example 91, 2-(3-fluorophenyl)-N-(1,1,1-trifluoro-3-hydroxybutan-2-yl)-6-[4-(trifluoromethoxy)phenyl]pyrimidine-4-carboxamide]",> 20000
4,"CC(C)(O)CNC(=O)c1cc(-c2ccc(OC(F)(F)F)cc2)nc(-c2ccc(C(F)F)cc2)n1 [Example 25, 2-[4-(difluoromethyl)phenyl]-N-(2-hydroxy-2-methylpropyl)-6-[4-(trifluoromethoxy)phenyl]pyrimidine-4-carboxamide]",> 20000
5,"CC(C)(O)CNC(=O)c1cc(-c2ccc(Cl)cc2)nc(-c2ccc(Cl)cc2)n1 [Example 46, 2,6-bis(4-chlorophenyl)-N-(2-hydroxy-2-methylpropyl)pyrimidine-4-carboxamide]",9790
6,"CC(C)(O)CNC(=O)c1cc(-c2ccc(Cl)cc2)nc(-c2ccc(F)c(C#N)c2)n1 [Example 52, 6-(4-chlorophenyl)-2-(3-cyano-4-fluorophenyl)-N-(2-hydroxy-2-methylpropyl)pyrimidine-4-carboxamide]",112
7,"CC(C)(O)CNC(=O)c1cc(-c2ccc(Cl)cc2)nc(-c2ccc(Br)cc2)n1 [Example 44, 2-(4-bromophenyl)-6-(4-chlorophenyl)-N-(2-hydroxy-2-methylpropyl)pyrimidine-4-carboxamide]",> 20000
8,"Cc1cc(F)cc(-c2nc(C(=O)N[C@@H](C)CO)cc(-c3ccc(Cl)cc3)n2)c1 [Example 77, 6-(4-chlorophenyl)-2-(3-fluoro-5-methylphenyl)-N-[(2S)-1-hydroxypropan-2-yl]pyrimidine-4-carboxamide]",26.4
9,"C[C@@H](CO)NC(=O)c1cc(-c2ccc(Cl)cc2)nc(-c2ccc(Cl)c(Cl)c2)n1 [Example 72, 6-(4-chlorophenyl)-2-(3,4-dichlorophenyl)-N-[(2S)-1-hydroxypropan-2-yl]pyrimidine-4-carboxamide]",361
10,"C[C@@H](CO)NC(=O)c1cc(-c2ccc(OC(F)(F)F)cc2)nc(-c2ccc(Cl)c(Cl)c2)n1 [Example 38, 2-(3,4-dichlorophenyl)-N-[(2S)-1-hydroxypropan-2-yl]-6-[4-(trifluoromethoxy)phenyl]pyrimidine-4-carboxamide]",4350
11,"CC(C)(O)CNC(=O)c1cc(-c2ccc(Cl)cc2)nc(-c2cccc(F)c2)n1 [Example 1, 6-(4-Chlorophenyl)-2-(3-fluorophenyl)-N-(2-hydroxy-2-methylpropyl)pyrimidine-4-carboxamide]",> 20000
12,"COc1ccc(-c2nc(C(=O)NCC(C)(C)O)cc(-c3ccc(Cl)cc3)n2)cc1 [Example 47, 6-(4-chlorophenyl)-N-(2-hydroxy-2-methylpropyl)-2-(4-methoxyphenyl)pyrimidine-4-carboxamide]",2220
13,"C[C@@H](CO)NC(=O)c1cc(-c2ccc(OC(F)(F)F)cc2)nc(-c2cc(Cl)cc(Cl)c2)n1 [Example 34, 2-(3,5-dichlorophenyl)-N-[(2S)-1-hydroxypropan-2-yl]-6-[4-(trifluoromethoxy)phenyl]pyrimidine-4-carboxamide]",170
14,"C[C@@H](CO)NC(=O)c1cc(-c2ccc(Cl)cc2)nc(-c2ccc(OC(F)(F)F)cc2)n1 [Example 73, 6-(4-chlorophenyl)-N-[(2S)-1-hydroxypropan-2-yl]-2-[4-(trifluoromethoxy)phenyl]pyrimidine-4-carboxamide]",9720
15,"CC(C)(O)CNC(=O)c1cc(-c2ccc(Cl)cc2)nc(-c2cc(F)cc(C(F)(F)F)c2)n1 [Example 58, 6-(4-chlorophenyl)-2-[3-fluoro-5-(trifluoromethyl)phenyl]-N-(2-hydroxy-2-methylpropyl)pyrimidine-4-carboxamide]",77.6
16,"CC(C)(O)CNC(=O)c1cc(-c2ccc(OC(F)(F)F)cc2)nc(-c2cc(F)cc(C#N)c2)n1 [Example 26, 2-(3-cyano-5-fluorophenyl)-N-(2-hydroxy-2-methylpropyl)-6-[4-(trifluoromethoxy)phenyl]pyrimidine-4-carboxamide]",40.2
17,"C[C@@H](CO)NC(=O)c1cc(-c2ccc(Cl)cc2)nc(-c2cc(Cl)cc(Cl)c2)n1 [Example 67, 6-(4-chlorophenyl)-2-(3,5-dichlorophenyl)-N-[(2S)-1-hydroxypropan-2-yl]pyrimidine-4-carboxamide]",101
18,"CC(C)(O)CNC(=O)c1cc(-c2ccc(OC(F)(F)F)cc2)nc(-c2ccc(F)cc2)n1 [Example 13, 2-(4-fluorophenyl)-N-(2-hydroxy-2-methylpropyl)-6-[4-(trifluoromethoxy)phenyl]pyrimidine-4-carboxamide]",26
19,"C[C@@H](CO)NC(=O)c1cc(-c2ccc(Cl)cc2)nc(-c2ccc(F)c(C#N)c2)n1 [Example 68, 6-(4-chlorophenyl)-2-(3-cyano-4-fluorophenyl)-N-[(2S)-1-hydroxypropan-2-yl]pyrimidine-4-carboxamide]",102
20,"C[C@@H](CO)NC(=O)c1cc(-c2ccc(OC(F)(F)F)cc2)nc(-c2cc(F)cc(C#N)c2)n1 [Example 43, 2-(3-cyano-5-fluorophenyl)-N-[(2S)-1-hydroxypropan-2-yl]-6-[4-(trifluoromethoxy)phenyl]pyrimidine-4-carboxamide]",21.5
21,"CC(C)(O)CNC(=O)c1cc(-c2ccc(Cl)cc2)nc(-c2cc(F)cc(C#N)c2)n1 [Example 62, 6-(4-chlorophenyl)-2-(3-cyano-5-fluorophenyl)-N-(2-hydroxy-2-methylpropyl)pyrimidine-4-carboxamide]",57.8
22,"C[C@@H](CO)NC(=O)c1cc(-c2ccc(OC(F)(F)F)cc2)nc(-c2ccc(F)c(C#N)c2)n1 [Example 35, 2-(3-cyano-4-fluorophenyl)-N-[(2S)-1-hydroxypropan-2-yl]-6-[4-(trifluoromethoxy)phenyl]pyrimidine-4-carboxamide]",78.3
